Measured values taken from patent US4382030A, “2-Acylaminomethyl-1,4-benzodiazepine derivatives and their salts, pharmaceutical compositions thereof and process for their preparation” (Kali-Chemie Pharma GmbH, priority 1979, dated 1983).

Key:
[1] = tested on: rats (secondary arthritis pain, mycobacterium smegmae); experiment: Arthritis Pain Test in Rats; assay type: in vivo; settings: po, rat, p.o., 3 hours after administration, protection in 50% of treated animals
Description: (§1) This analgesic activity has been evaluated in two pharmacological standard methods, the tail flick test in mice and the arthritis pain test in rats.
2. Arthritis Pain Test in Rats.
Male rats having a weight of from 160 to 180 g are anesthetized by small i.p. injection of 20 mg/kg of sodium pentobarbital and 0.1 ml of a suspension of mycobacterium smegmae (SI 043) in liquid paraffin (0.6 mg mycobacterium/0.1 ml of oil) are injected intracutaneously into the left rear paw. Fourteen days later when a marked secondary arthritis has developed in particular in the right rear paw, the effect of the test compound is evaluated. A control-reading is taken 30 minutes prior to administration of the test compound by bending the foot joint of the right rear paw three times and counting the number of squeakings. […] Three hours after oral administration of the test compound the bending of the joint is repeated. Animals which squeak only once or not at all are considered to be protected against pain. Between about 9 and 20 rats are used per dose and the ED50 (95% reliability) is determined according to the method of Litchfield and Wilcoxon (1949). The dose which provides protection in 50% of the treated animals is taken as ED50.

[2] = tested on: mice (tail flick, heat beam pain reaction); experiment: Tail flick Test in Mice; assay type: in vivo; settings: sc, 0.5 h; mouse, s.c.; 30 minutes after administration; >75% increase of reaction time in 50% of animals
Description: as §1
3. Tail flick Test in Mice.
This test is carried out according to the method described by D'Amour and Smith (1941), yet fed male and female mice having a body weight of 16 to 25 g are used instead of rats. Thirty minutes prior to treatment with the test compound, each mouse is placed separately in a cylindrical container in such a manner that it cannot turn itself or move forward. Its tail is positioned in a narrow groove projecting out of the container. A certain point of the tail of each animal (about 35 mm beyond the root of the tail) is subjected to the heat beam of a lamp of known strength and temperature which is positioned directly under the tail. The number of seconds which pass before the mouse moves its tail out of the light beam is determined twice, once 30 minutes and once 15 minutes prior to subcutaneous administration of the test compound (10 mg/kg). Mice which show a reaction time differing more than 25% are eliminated from the test. The reaction time is again determined 15 minutes and 30 minutes after the treatment and an increase of the reaction period of more than 75% of the average values prior to treatment in the same animal is considered as showing an analgesic effect. The ED50 (95% reliability) of each test compound 30 minutes after administration is evaluated according to the method of Litchfield and Wilcoxon (1949). The dose which increases the reaction time as compared to the reaction time prior to treatment for more than 75% in 50% of the animals is considered as ED50.

SMILES	ED50 [1]	ED50 [2]
CN1c2ccccc2C(c2ccccc2)=NCC1CNC(=O)c1ccoc1 (centres unmarked) [Compound 22, 1-methyl-2-[(furane-3-carbonyl)-aminomethyl]-5-phenyl-2,3-dihydro-1,4-benzodiazepine]	14 mg/kg	0.44 mg/kg
COc1ccc2c(c1)N(C)C(CNC(=O)c1sccc1C)CN=C2c1ccccc1 (centres unmarked) [Compound 23, 8-methoxy-1-methyl-2-[(3-methylthiophene-2-carbonyl)-aminomethyl]-5-phenyl-1H-2,3-dihydro-1,4-benzodiazepine]	25 mg/kg	7.2 mg/kg
CN1c2cc3c(cc2C(c2ccccc2)=NCC1CNC(=O)c1cccs1)OCO3 (centres unmarked) [Compound 24, 7,8-methylenedioxy-1-methyl-2-[(thiophene-2-carbonyl)-aminomethyl]-5-phenyl-1H-2,3-dihydro-1,4-benzodiazepine]	10 mg/kg	3.8 mg/kg
CN1c2cc3c(cc2C(c2ccccc2)=NCC1CNC(=O)c1ccco1)OCO3 (centres unmarked) [Compound 25]	< 32 mg/kg	< 5.6 mg/kg
CN1c2cc3c(cc2C(c2ccccc2)=NCC1CNC(=O)c1ccoc1)OCO3 (centres unmarked) [Compound 26, 7,8-methylenedioxy-1-methyl-2-[(furane-3-carbonyl)-aminomethyl]-5-phenyl-1H-2,3-dihydro-1,4-benzodiazepine]	< 5.6 mg/kg	2 mg/kg
COc1ccc2c(c1)N(C)C(CNC(=O)c1ccc(Br)s1)CN=C2c1ccccc1 (centres unmarked) [Compound 27, 8-methoxy-1-methyl-2-[(5-bromothiophene-2-carbonyl)-aminomethyl]-5-phenyl-1H-2,3-dihydro-1,4-benzodiazepine]	< 32 mg/kg	> 5.6 mg/kg
O=C(NCC1CN=C(c2ccccc2)c2ccccc2N1)c1cccs1 (centres unmarked) [Compound 28, 2-[(thiophene-2-carbonyl)-aminomethyl]-5-phenyl-1H-2,3-dihydro-1,4-benzodiazepine]	> 32 mg/kg	4.2 mg/kg
COc1ccc2c(c1)N(C)C(CNC(=O)c1cccnc1)CN=C2c1ccccc1 (centres unmarked) [Compound 29, 8-methoxy-1-methyl-2-nicotinoylaminomethyl-5-phenyl-1H-2,3-dihydro-1,4-benzodiazepine]	30 mg/kg	4 mg/kg
COc1ccc2c(c1)N(C)C(CNC(=O)c1ccccn1)CN=C2c1ccccc1 (centres unmarked) [Compound 30, 8-methoxy-1-methyl-2-picolinoylaminomethyl-5-phenyl-1H-2,3-dihydro-1,4-benzodiazepine]	> 32 mg/kg	7 mg/kg
COc1ccc2c(c1)N(C)C(CNC(=O)c1ccc(C)o1)CN=C2c1ccccc1 (centres unmarked) [Compound 31, 8-methoxy-1-methyl-2-[(5-methylfurane-2-carbonyl)-aminomethyl]-5-phenyl-1H-2,3-dihydro-1,4-benzodiazepine]	30 mg/kg	4.4 mg/kg
Cc1ccc(C(=O)NCC2CN=C(c3ccccc3)c3cc4c(cc3N2C)OCO4)s1 (centres unmarked) [Compound 32, 7,8-methylenedioxy-1-methyl-2-[(5-methylthiophene-2-carbonyl)-aminomethyl]-5-phenyl-1H-2,3-dihydro-1,4-benzodiazepine]	< 18 mg/kg	5.6 mg/kg
COc1ccc2c(c1)N(C)C(CNC(=O)c1cccn1C)CN=C2c1ccccc1 (centres unmarked) [Compound 33, 8-methoxy-1-methl-2-[(1-methylpyrrol-2-carbonyl)-aminomethyl]-5-phenyl-1H-2.3-dihydro-1,4-benzodiazepine]	< 18 mg/kg	1 mg/kg
COc1ccc2c(c1)N(C)C(CNC(=O)c1ccoc1)CN=C2c1ccc(F)cc1 (centres unmarked) [Compound 34, 8-methoxy-1-methyl-2-[(furane-3-carbonyl)-aminomethyl]-5-(4-fluorophenyl)-1H-2,3-dihydro-1,4-benzodiazepine]	5.6 mg/kg	2.1 mg/kg
COc1ccc2c(c1)N(C)C(CNC(=O)c1ccoc1)CN=C2c1ccccc1C(F)(F)F (centres unmarked) [Compound 35, 8-methoxy-1-methyl-2-[(furane-3-carbonyl)-aminomethyl]-5-(2-trifluoromethylphenyl)-1H-2,3-dihydro-1,4-benzodiazepine]	< 18 mg/kg	1 mg/kg
CN1c2ccccc2C(c2ccccc2)=NCC1CNC(=O)c1cccn1C (centres unmarked) [Compound 36, 1-methyl-2-[(1-methylpyrrol-2-carbonyl)-aminomethyl]-5-phenyl-1H-2,3-dihydro-1,4-benzodiazepine]	> 18 mg/kg	2.1 mg/kg
CN1c2cc(Cl)ccc2C(c2ccccc2)=NCC1CNC(=O)c1ccoc1 (centres unmarked) [Compound 37, 8-chloro-1-methyl-2-[(furane-3-carbonyl)-aminomethyl]-5-phenyl-1H-2,3-dihydro-1,4-benzodiazepine]	> 18 mg/kg	1.2 mg/kg
CN1c2cc(F)ccc2C(c2ccccc2)=NCC1CNC(=O)c1ccoc1 (centres unmarked) [Compound 38, 8-fluoro-1-methyl-2-[(furane-3-carbonyl)-amino-methyl]-5-phenyl-1H-2,3-dihydro-1,4-benzodiazepine]	< 18 mg/kg	0.32 mg/kg
COc1ccc2c(c1)N(C)C(CNC(=O)c1ccoc1)CN=C2c1ccccc1F (centres unmarked) [Compound 39, 8-methoxy-1-methyl-2-[(furane-3-carbonyl)-amino-methyl]-5-(2-fluorophenyl)-1H-2,3-dihydro-1,4-benzodiazepine]	< 10 mg/kg	0.7 mg/kg
COc1ccc2c(c1)N(C)C(CNC(=O)c1cccs1)CN=C2c1ccccc1F (centres unmarked) [Compound 40, 8-methoxy-1-methyl-2-[(thiophene-2-carbonyl)-aminomethyl]-5-(2-fluorophenyl)-1H-2,3-dihydro-1,4-benzodiazepine]	< 18 mg/kg	1.2 mg/kg
CN1c2cc3c(cc2C(c2ccccc2)=NCC1CNC(=O)c1ccsc1)OCO3 (centres unmarked) [Compound 41, 7,8-methylenedioxy-1-methyl-2-[(thiophene-3-carbonyl)-aminomethyl]-5-phenyl-1H-2,3-dihydro-1,4-benzodiazepine]	5.6 mg/kg	2.1 mg/kg
COc1ccc2c(c1)N(C)C(CNC(=O)c1ccoc1)CN=C2c1cccc(F)c1 (centres unmarked) [Compound 42, 8-methoxy-1-methyl-2-[(furane-3-carbonyl)-aminomethyl]-5-(3-fluorophenyl)-1H-2,3-dihydro-1,4-benzodiazepine]	< 18 mg/kg	5.6 mg/kg
Cc1ccc(C(=O)NCC2CN=C(c3ccccc3)c3ccc(F)cc3N2C)s1 (centres unmarked) [Compound 43, 8-fluoro-1-methyl-2-[(5-methylthiophene-2-carbonyl)-aminomethyl]-5-phenyl-1H-2,3-dihydro-1,4-benzodiazepine]	< 18 mg/kg	5.6 mg/kg
CN1c2cc3c(cc2C(c2ccccc2)=NCC1CNC(=O)c1ccoc1)OCCO3 (centres unmarked) [Compound 44, 7,8-ethylenedioxy-1-methyl-2-[(furane-3-carbonyl)-aminomethyl]-5-phenyl-1H-2,3-dihydro-1,4-benzodiazepine]	< 18 mg/kg	> 5.6 mg/kg
Cc1ccc2c(c1)C(c1ccccc1F)=NCC(CNC(=O)c1ccoc1)N2C (centres unmarked) [Compound 45, 1,7-dimethyl-2-[(furane-3-carbonyl)-aminomethyl]-5-(2-fluorophenyl)-1H-2,3-dihydro-1,4-benzodiazepine]	< 18 mg/kg	3.8 mg/kg
COc1ccc2c(c1)N(C)C(CNC(=O)c1ccc(Br)s1)CN=C2c1ccccc1F (centres unmarked) [Compound 46, 8-methoxy-1-methyl-2-[(5-bromothiophene-2-carbonyl)-aminomethyl]-5-(2-fluorophenyl)-1H-2,3-dihydro-1,4-benzodiazepine]	< 18 mg/kg	5.6 mg/kg
